Data from PubChem BioAssay (NCI).
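Cells were grown in 96-well plates and exposed to each compound for 48 hours at five concentrations; endpoints were interpolated linearly between bracketing concentrations, or set to the highest concentration if not reached. At the TGI there is no net growth.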

Legend:
Assay in all cases: NCI-60 cell line screen, 48 h
[1] = tested on: IGROV1 ovarian
[2] = tested on: XF 498 CNS
[3] = tested on: HOP-62 NSCLC
[4] = tested on: SF-295 CNS
[5] = tested on: M19-MEL melanoma
[6] = tested on: LXFL 529 NSCLC
[7] = tested on: UACC-257 melanoma
[8] = tested on: KM12 colon
[9] = tested on: HCC-2998 colon
[10] = tested on: OVCAR-4 ovarian
[11] = tested on: NCI-H460 lung
[12] = tested on: HCT-15 colon
[13] = tested on: SN12C renal
[14] = tested on: SK-MEL-2 melanoma
[15] = tested on: MALME-3M melanoma
[16] = tested on: SNB-75 CNS
[17] = tested on: NCI-H23 lung
[18] = tested on: K-562 leukemia
[19] = tested on: MOLT-4 leukemia
[20] = tested on: EKVX NSCLC
[21] = tested on: SR leukemia
[22] = tested on: CAKI-1 renal
[23] = tested on: CCRF-CEM leukemia
[24] = tested on: OVCAR-8 ovarian
[25] = tested on: A549 NSCLC
[26] = tested on: ACHN renal
[27] = tested on: KM20L2 colon
[28] = tested on: RXF 393 renal
[29] = tested on: DMS 114 small cell lung
[30] = tested on: LOX IMVI melanoma
[31] = tested on: SF-539 CNS
[32] = tested on: NCI-H226 lung
[33] = tested on: HL-60(TB) leukemia
[34] = tested on: SF-268 CNS
[35] = tested on: HT29 colon
[36] = tested on: 786-0 renal
[37] = tested on: COLO 205 colon
[38] = tested on: NCI-H522 lung
[39] = tested on: HOP-92 NSCLC
[40] = tested on: SK-OV-3 ovarian
[41] = tested on: DMS 273 small cell lung
[42] = tested on: RPMI-8226 leukemia
[43] = tested on: M14 melanoma
[44] = tested on: OVCAR-3 ovarian
[45] = tested on: OVCAR-5 ovarian
[46] = tested on: DLD-1 colon
[47] = tested on: SW-620 colon
[48] = tested on: U251 CNS
[49] = tested on: SK-MEL-28 melanoma
[50] = tested on: SK-MEL-5 melanoma
[51] = tested on: TK-10 renal
[52] = tested on: SNB-78 CNS
[53] = tested on: UO-31 renal
[54] = tested on: UACC-62 melanoma
[55] = tested on: A498 renal

NC(=O)CCCC(NCc1c2ccccc2nc2ccccc12)C(=O)O (centres undefined) was tested, and the TGI [1] was over 100 µM, the TGI [2] was 61.8 µM and the TGI [3] was over 100 µM. For the same molecule, the TGI [4] was over 100 µM, the TGI [5] was over 100 µM and the TGI [6] was over 100 µM. For the same molecule, the TGI [7] was over 100 µM, the TGI [8] was over 100 µM and the TGI [9] was over 100 µM. For the same molecule, the TGI [10] was 41.7 µM, the TGI [11] was over 100 µM and the TGI [12] was over 100 µM. For the same molecule, the TGI [13] was over 100 µM, the TGI [14] was over 100 µM and the TGI [15] was over 100 µM. For the same molecule, the TGI [16] was over 100 µM, the TGI [17] was over 100 µM and the TGI [18] was over 100 µM. It also gave a TGI [19] of 66.2 µM, a TGI [20] of over 100 µM and a TGI [21] of over 100 µM. It also gave a TGI [22] of 96.2 µM, a TGI [23] of 71.6 µM and a TGI [24] of over 100 µM. The TGI [25] was over 100 µM, the TGI [26] was over 100 µM and the TGI [27] was over 100 µM. The TGI [28] was over 100 µM, the TGI [29] was over 100 µM and the TGI [30] was over 100 µM. For the same molecule, the TGI [31] was over 100 µM, the TGI [32] was over 100 µM and the TGI [33] was 62.2 µM. For the same molecule, the TGI [34] was over 100 µM, the TGI [35] was over 100 µM and the TGI [36] was over 100 µM. For the same molecule, the TGI [37] was over 100 µM, the TGI [38] was 67.7 µM and the TGI [39] was 85.7 µM. It also gave a TGI [40] of over 100 µM, a TGI [41] of 86.7 µM and a TGI [42] of 93.6 µM. The TGI [43] was over 100 µM, the TGI [44] was over 100 µM and the TGI [45] was over 100 µM. For the same molecule, the TGI [46] was over 100 µM, the TGI [47] was over 100 µM and the TGI [48] was over 100 µM. For the same molecule, the TGI [49] was over 100 µM, the TGI [50] was over 100 µM and the TGI [51] was over 100 µM.

For O=C1OC(CCCl)(c2ccccc2)CC1CN1CCOCC1 (centres undefined), the TGI [1] was 50.1 µM, the TGI [2] was 29.3 µM and the TGI [52] was 81.5 µM. It also gave a TGI [3] of over 100 µM, a TGI [4] of over 100 µM and a TGI [5] of 45.6 µM. The TGI [6] was 33.7 µM, the TGI [7] was 73.4 µM and the TGI [8] was 47.7 µM. It also gave a TGI [9] of over 100 µM, a TGI [10] of over 100 µM and a TGI [11] of over 100 µM. It also gave a TGI [12] of 55.5 µM, a TGI [13] of 90.7 µM and a TGI [14] of 57.5 µM. For the same molecule, the TGI [15] was 33.5 µM, the TGI [16] was 51.7 µM and the TGI [17] was 23.7 µM. It also gave a TGI [18] of 61.3 µM, a TGI [19] of 48 µM and a TGI [53] of over 100 µM. For the same molecule, the TGI [20] was 40.5 µM, the TGI [54] was 49.4 µM and the TGI [22] was 24.6 µM. It also gave a TGI [23] of 41.6 µM, a TGI [24] of 38.5 µM and a TGI [25] of over 100 µM. For the same molecule, the TGI [26] was over 100 µM, the TGI [27] was over 100 µM and the TGI [55] was over 100 µM. It also gave a TGI [28] of 30.9 µM, a TGI [29] of 42.9 µM and a TGI [30] of 83.1 µM. The TGI [31] was 70.1 µM, the TGI [32] was 28 µM and the TGI [33] was 26.5 µM. It also gave a TGI [34] of over 100 µM, a TGI [35] of 46 µM and a TGI [36] of 24.4 µM. For the same molecule, the TGI [37] was 35.4 µM, the TGI [38] was 33.5 µM and the TGI [39] was 31.6 µM. The TGI [40] was over 100 µM, the TGI [42] was 27.9 µM and the TGI [43] was 57.1 µM. The TGI [44] was 32.1 µM, the TGI [45] was over 100 µM and the TGI [46] was 34 µM. The TGI [47] was 39.2 µM, the TGI [48] was over 100 µM and the TGI [49] was 36.9 µM. The TGI [50] was 41.7 µM and the TGI [51] was 30.5 µM.
